In patent US9994551B2, “Pyridazine derivatives as RORc modulators” (Genentech, Inc., priority 2015, dated 2018):

biological target: T1, RORc ligand binding domain (Homo sapiens, UniProt P51449); assay: In vitro RORc ligand binding assay (25-[3H]hydroxycholesterol displacement, filter binding)
T1 construct: host or cells: E. coli
T1 sequence (P51449 269-508 limits assumed): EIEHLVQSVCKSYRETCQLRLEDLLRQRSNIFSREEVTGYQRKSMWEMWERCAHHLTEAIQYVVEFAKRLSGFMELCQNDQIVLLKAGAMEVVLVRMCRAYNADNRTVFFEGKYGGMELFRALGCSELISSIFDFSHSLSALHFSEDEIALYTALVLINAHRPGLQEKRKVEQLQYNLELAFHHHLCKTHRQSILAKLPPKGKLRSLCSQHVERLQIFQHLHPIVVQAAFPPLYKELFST
Procedure: This assay was used to determine a compound's potency in inhibiting activity of RORc by determining, Kiapp, IC50, or percent inhibition values.
On day of the assay, 100 uL of 0.05% CHAPS (in deionized H2O) was added to all wells of the GFB Unifilter plate and allowed soak for 1 h. A wash buffer of 50 mM HEPES (pH 7.4), 150 mM NaCl, and 5 mM MgCl2 was prepared to wash the filter plate. To prepare an assay buffer, BSA was added to the wash buffer to reach 0.01% and DTT was added to reach 1 mM.
The 20× compound stocks were diluted in DMSO with Assay Buffer 4-fold to reach 5× the final test concentration in 25% DMSO (10 uL compound+30 uL Assay Buffer). Solutions were mixed by aspiration several times with a pipette set on 50 uL volume. For the assay, 10 uL of 5× compound stock solutions in 25% DMSO were added to the assay plate in duplicate.
For two point screening, 10 mM stock compound solutions were diluted in DMSO to obtain 200 uM (20× the high test concentration) and then diluted 10-fold further to reach 20 uM (20× the low test concentration). The 20× stocks were diluted 4-fold with Assay Buffer (10 uL compound+30 uL Assay Buffer) to reach 5× the test concentrations (50 uM and 5 uM) and 10 uL were added to two assay plates for the duplicate wells. With each concentration tested on 2 plates, each set of 80 compounds used 4 assay plates (1 uM and 10 uM, with n=2).
For 25-hydroxycholesterol in 25% DMSO/75% Assay Buffer; 10 uL per well was used for NSB samples. Wells for Total Binding and No Receptor sample determination contained 10 uL of 25% DMSO/75% Assay Buffer per well.
Add 20 uL to all wells to reach 6 nM final concentration in the assay.
Stock receptor solution was diluted in assay buffer to obtain 1.5 ug/mL in Assay Buffer. 20 uL was added to all wells. For No Receptor samples, 20 uL Assay Buffer was substituted for receptor solution.
Assay plates were 96-well polypropylene V-bottom plates. 10 uL of 5× compound in 25% DMSO/75% Assay Buffer was added to Test wells. 10 uL of 25% DMSO/75% Assay Buffer was added to Total Binding or No Receptor wells. 10 uL of 5 uM 25-hydroxycholesterol in 25% DMSO/75% Assay Buffer was added to NSB wells. […] 20 uL of 1.5 ug/mL RORc receptor was added to wells (or 40 uL Assay Buffer to No R wells). Following addition to the wells, the plates were incubated 3 h at 25° C.
Using a Packard Filtermate Harvester, the filter plate were washed 4 times following transfer of the incubated samples. Plates were dry-filtered completely (2 h at 50° C. or overnight at room temperature). 50 uL Microscint 0 was added to all wells and read on Topcount protocol Inverted.

| IC50 | Structure (SMILES) |
| --- | --- |
| 74.5 nM | CC1(C)[C@H]2CC[C@]1([C@@H]1CN(C(=O)c3cnco3)CCO1)c1nnc(-c3c(F)cccc3F)cc12 [Compound 90, ((R)-2-((5R,8R)-3-(2,6-difluorophenyl)-9,9-dimethyl-5,6,7,8-tetrahydro-5,8-methanocinnolin-8-yl)morpholino)(oxazol-5-yl)methanone] |
| 308 nM | CC(=O)N1CCO[C@H]([C@@]23CC[C@@H](c4cc(-c5c(F)cccc5F)nnc42)C3(C)C)C1 [Compound 64, 1-((R)-2-((5R,8R)-3-(2,6-difluorophenyl)-9,9-dimethyl-5,6,7,8-tetrahydro-5,8-methanocinnolin-8-yl)morpholino)ethanone] |
| 844 nM | Cc1cc(O[C@@]23CC[C@@H](c4cc(-c5c(F)cccc5F)nnc42)C3(C)C)ccn1 [Compound 25, (5S,8R)-3-(2,6-difluorophenyl)-9,9-dimethyl-8-((2-methylpyridin-4-yl)oxy)-5,6,7,8-tetrahydro-5,8-methanocinnoline] |
| 66.2 nM | CC1(C)[C@H]2CC[C@]1([C@H]1CN(C(N)=O)CCO1)c1nnc(-c3c(F)cccc3F)cc12 [Compound 81, (S)-2-((5R,8R)-3-(2,6-difluorophenyl)-9,9-dimethyl-5,6,7,8-tetrahydro-5,8-methanocinnolin-8-yl)morpholine-4-carboxamide] |
| 74 nM | CC1(C)[C@H]2CC[C@]1(C1CCC(=O)NC1)c1nnc(-c3c(F)cccc3F)cc12 (some centres unmarked) [Compound 116, 5-[5-(2,6-difluorophenyl)-11,11-dimethyl-3,4-diazatricyclo[6.2.1.02,7]undeca-2,4,6-trien-1-yl]piperidin-2-one] |
| 24 nM | CNC(=O)N1CCO[C@@H]([C@@]23CC[C@@H](c4cc(-c5c(F)cccc5F)nnc42)C3(C)C)C1 [Compound 74, (S)-2-((5R,8R)-3-(2,6-difluorophenyl)-9,9-dimethyl-5,6,7,8-tetrahydro-5,8-methanocinnolin-8-yl)-N-methylmorpholine-4-carboxamide] |
| 47 nM | CC[C@@H](O[C@]12CC[C@H](c3cc(-c4c(F)cccc4F)nnc31)C2(C)C)C(=O)O [Compound 113, (2R)-2-[[(1S,8R)-5-(2,6-difluorophenyl)-11,11-dimethyl-3,4-diazatricyclo[6.2.1.02,7]undeca-2,4,6-trien-1-yl]oxy]butanoic acid] |
| 283 nM | CNC(=O)c1nnc([C@@]23CC[C@@H](c4cc(-c5c(F)cccc5F)nnc42)C3(C)C)o1 [Compound 3, 5-((5R,8R)-3-(2,6-difluorophenyl)-9,9-dimethyl-5,6,7,8-tetrahydro-5,8-methanocinnolin-8-yl)-N-methyl-1,3,4-oxadiazole-2-carboxamide] |
| 5.7 nM | CC[C@@H](O[C@@]12CC[C@@H](c3cc(-c4c(F)cccc4F)nnc31)C2(C)C)c1nnc(CO)o1 [Compound 32, (5-((R)-1-(((5S,8R)-3-(2,6-difluorophenyl)-9,9-dimethyl-5,6,7,8-tetrahydro-5,8-methanocinnolin-8-yl)oxy)propyl)-1,3,4-oxadiazol-2-yl)methanol] |
| 1030 nM | CC1(C)[C@H]2CC[C@]1([C@H]1CN(S(C)(=O)=O)CCO1)c1nnc(-c3c(F)cccc3F)cc12 [Compound 73, (S)-2-((5R,8R)-3-(2,6-difluorophenyl)-9,9-dimethyl-5,6,7,8-tetrahydro-5,8-methanocinnolin-8-yl)-4-(methylsulfonyl)morpholine] |
| 11 nM | CC1(C)[C@H]2CC[C@]1([C@@H]1CN(C(=O)c3c[nH]c(=O)cn3)CCO1)c1nnc(-c3c(F)cccc3F)cc12 [Compound 118, 5-[2-[5-(2,6-difluorophenyl)-11,11-dimethyl-3,4-diazatricyclo[6.2.1.02,7]undeca-2,4,6-trien-1-yl]morpholine-4-carbonyl]-1H-pyrazin-2-one] |
| 42 nM | CC(C)NC(=O)N1CCC[C@H]([C@@]23CC[C@@H](c4cc(-c5c(F)cccc5F)nnc42)C3(C)C)C1 [Compound 137, 3-[5-(2,6-difluorophenyl)-11,11-dimethyl-3,4-diazatricyclo[6.2.1.02,7]undeca-2,4,6-trien-1-yl]-N-isopropyl-piperidine-1-carboxamide] |
| 420 nM | CC(C)(C)OC(=O)N1CCN[C@H]([C@@]23CC[C@@H](c4cc(-c5c(F)cccc5F)nnc42)C3(C)C)C1 (single isomer, unassigned) [Compound 114, tert-butyl 3-[5-(2,6-difluorophenyl)-11,11-dimethyl-3,4-diazatricyclo[6.2.1.02,7]undeca-2,4,6-trien-1-yl]piperazine-1-carboxylate] |
| 13 nM | Cc1n[nH]c(C(=O)N2CCO[C@@H]([C@@]34CC[C@@H](c5cc(-c6c(F)cccc6F)nnc53)C4(C)C)C2)n1 [Compound 117, [2-[5-(2,6-difluorophenyl)-11,11-dimethyl-3,4-diazatricyclo[6.2.1.02,7]undeca-2,4,6-trien-1-yl]morpholin-4-yl]-(3-methyl-1H-1,2,4-triazol-5-yl)methanone] |
| 21 nM | CC1(C)[C@H]2CC[C@]1([C@H]1CN(C(=O)c3c[nH]c(=O)cn3)CCO1)c1nnc(-c3c(F)cccc3F)cc12 [Compound 119, 5-[2-[5-(2,6-difluorophenyl)-11,11-dimethyl-3,4-diazatricyclo[6.2.1.02,7]undeca-2,4,6-trien-1-yl]morpholine-4-carbonyl]-1H-pyrazin-2-one] |
| 920 nM | C[C@H](O)C(=O)N(C)[C@@]12CC[C@@H](c3cc(-c4c(F)cccc4F)nnc31)C2(C)C [Compound 1, (S)-N-((5R,8R)-3-(2,6-difluorophenyl)-9,9-dimethyl-5,6,7,8-tetrahydro-5,8-methanocinnolin-8-yl)-2-hydroxy-N-methylpropanamide] |
| 8.3 nM | CC1(C)[C@H]2CC[C@]1([C@H]1CCCN(C(=O)c3cn[nH]c3)C1)c1nnc(-c3c(F)cccc3F)cc12 [Compound 167, [3-[5-(2,6-difluorophenyl)-11,11-dimethyl-3,4-diazatricyclo[6.2.1.02,7]undeca-2,4,6-trien-1-yl]-1-piperidyl]-(1H-pyrazol-4-yl)methanone] |
| 215 nM | CN1CCO[C@H]([C@@]23CC[C@@H](c4cc(-c5c(F)cccc5F)nnc42)C3(C)C)C1 [Compound 67, (R)-2-((5R,8R)-3-(2,6-difluorophenyl)-9,9-dimethyl-5,6,7,8-tetrahydro-5,8-methanocinnolin-8-yl)-4-methylmorpholine] |
| 7.9 nM | CC(C)(O)CNC(=O)N1CCC[C@H]([C@@]23CC[C@@H](c4cc(-c5c(F)cccc5F)nnc42)C3(C)C)C1 [Compound 150, 3-[5-(2,6-difluorophenyl)-11,11-dimethyl-3,4-diazatricyclo[6.2.1.02,7]undeca-2,4,6-trien-1-yl]-N-(2-hydroxy-2-methyl-propyl)piperidine-1-carboxamide] |
| 98.5 nM | CN(C)C(=O)N1CCC[C@H]([C@@]23CC[C@@H](c4cc(-c5c(F)cccc5F)nnc42)C3(C)C)C1 [Compound 97, (R)-3-((5R,8R)-3-(2,6-difluorophenyl)-9,9-dimethyl-5,6,7,8-tetrahydro-5,8-methanocinnolin-8-yl)-N,N-dimethylpiperidine-1-carboxamide] |
| 61.5 nM | CC[C@@H](O[C@@]12CC[C@@H](c3cc(-c4c(F)cccc4F)nnc31)C2(C)C)C(=O)NC[C@H](C)O [Compound 51, (R)-2-(((5S,8R)-3-(2,6-difluorophenyl)-9,9-dimethyl-5,6,7,8-tetrahydro-5,8-methanocinnolin-8-yl)oxy)-N-((S)-2-hydroxypropyl)butanamide] |
| 16.7 nM | CC1(C)[C@H]2CC[C@]1([C@H]1CN(c3ccccn3)CCO1)c1nnc(-c3c(F)cccc3F)cc12 [Compound 82, (S)-2-((5R,8R)-3-(2,6-difluorophenyl)-9,9-dimethyl-5,6,7,8-tetrahydro-5,8-methanocinnolin-8-yl)-4-(pyridin-2-yl)morpholine] |
| 356 nM | CC1(C)[C@H]2CC[C@]1([C@@H]1CN(CC(F)F)CCO1)c1nnc(-c3c(F)cccc3F)cc12 [Compound 83, (R)-4-(2,2-difluoroethyl)-2-((5R,8R)-3-(2,6-difluorophenyl)-9,9-dimethyl-5,6,7,8-tetrahydro-5,8-methanocinnolin-8-yl)morpholine] |
